Entries after “also recorded” stand apart in the source; their conditions may differ.
Tests used:
[1] = set-up: method as in PMID 30253203; conditions: oral brigatinib, Abcb1a/1b;Abcg2-/- mice; cited from earlier work
[2] = oral, mice; cited from earlier work
[3] = target: T1, human OATP1B1 (Homo sapiens, UniProt Q9Y6L6); experiment: Cellular uptake in OATP1B1-overexpressing HEK293 cells; assay type: in vitro ADME; conditions: 0.2 µM, 2.5 min incubation, HEK293 OATP1B1, positive control
T1 construct: Werner Siegmund and Dr. Markus Keiser (University of Greifswald); host or cells: HEK293
T1 sequence (Q9Y6L6 1-691): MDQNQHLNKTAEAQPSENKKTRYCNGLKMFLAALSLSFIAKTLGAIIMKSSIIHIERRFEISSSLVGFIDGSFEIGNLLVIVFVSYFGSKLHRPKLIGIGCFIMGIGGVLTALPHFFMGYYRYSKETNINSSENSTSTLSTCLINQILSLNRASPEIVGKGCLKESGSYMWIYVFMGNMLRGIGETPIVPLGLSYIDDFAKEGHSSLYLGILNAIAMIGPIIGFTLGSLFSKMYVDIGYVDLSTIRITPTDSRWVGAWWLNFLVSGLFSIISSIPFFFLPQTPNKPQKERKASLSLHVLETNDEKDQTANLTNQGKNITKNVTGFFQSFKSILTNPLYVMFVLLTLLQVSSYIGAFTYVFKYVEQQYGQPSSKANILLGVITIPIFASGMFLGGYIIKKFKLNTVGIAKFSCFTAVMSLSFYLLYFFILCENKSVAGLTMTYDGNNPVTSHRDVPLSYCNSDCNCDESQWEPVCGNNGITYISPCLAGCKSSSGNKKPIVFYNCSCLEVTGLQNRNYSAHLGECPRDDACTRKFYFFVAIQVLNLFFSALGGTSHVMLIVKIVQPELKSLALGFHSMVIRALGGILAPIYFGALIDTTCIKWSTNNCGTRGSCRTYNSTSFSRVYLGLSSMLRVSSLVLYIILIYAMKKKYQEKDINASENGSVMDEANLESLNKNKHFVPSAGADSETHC
Method: (§1) HEK293 cells, vector-transfected or human (h)SLCO1A2, hSLCO1B1 or hSLCO1B3 cDNA-transfected were kind gifts from Prof. Werner Siegmund and Dr. Markus Keiser (University of Greifswald, Greifswald, Germany). All the HEK293 cell lines were maintained in DMEM supplemented with 10% (v/v) FBS, 1% penicillin–streptomycin mix at 37 °C in 5% (v/v) CO2 and 500 μg/mL G418. Cells were first seeded in 12-well plates [coated with 50 mg/L poly (l-lysine) and 50 mg/L poly (l-ornithine)] at a density of 1.0 × 10^5 cells/well. For the uptake study, in order to induce the expression of OATP transporters, the cell culture medium was replaced with culture medium supplemented with 5 mM sodium butyrate 24 h before performing the uptake assay.
(§2) The uptake transport study was performed as described previously. […] The Krebs–Henseleit solution was prepared from Krebs–Henseleit-buffer modified powder and supplemented with 25 mM NaHCO3 and 2.5 mM CaCl2 adjusted to pH 6.4 with 1 M HCL. At 2.5 min, the incubation buffer was removed, and uptake was terminated by adding 1 mL of ice-cold Krebs–Henseleit buffer, followed by two times washing with 1 mL of ice-cold Krebs–Henseleit buffer. […] The cellular protein amount was determined by the Bradford method using 10 μL of the cell lysates with bovine serum albumin as a standard.

[4] = target: T2, human OATP1A2 (Homo sapiens, UniProt P46721); experiment: Cellular uptake in OATP1A2-overexpressing HEK293 cells; assay type: in vitro ADME; conditions: 0.2 µM, 2.5 min incubation, HEK293 OATP1A2, positive control
T2 construct: Werner Siegmund and Dr. Markus Keiser (University of Greifswald); host or cells: HEK293
T2 sequence (P46721 1-670): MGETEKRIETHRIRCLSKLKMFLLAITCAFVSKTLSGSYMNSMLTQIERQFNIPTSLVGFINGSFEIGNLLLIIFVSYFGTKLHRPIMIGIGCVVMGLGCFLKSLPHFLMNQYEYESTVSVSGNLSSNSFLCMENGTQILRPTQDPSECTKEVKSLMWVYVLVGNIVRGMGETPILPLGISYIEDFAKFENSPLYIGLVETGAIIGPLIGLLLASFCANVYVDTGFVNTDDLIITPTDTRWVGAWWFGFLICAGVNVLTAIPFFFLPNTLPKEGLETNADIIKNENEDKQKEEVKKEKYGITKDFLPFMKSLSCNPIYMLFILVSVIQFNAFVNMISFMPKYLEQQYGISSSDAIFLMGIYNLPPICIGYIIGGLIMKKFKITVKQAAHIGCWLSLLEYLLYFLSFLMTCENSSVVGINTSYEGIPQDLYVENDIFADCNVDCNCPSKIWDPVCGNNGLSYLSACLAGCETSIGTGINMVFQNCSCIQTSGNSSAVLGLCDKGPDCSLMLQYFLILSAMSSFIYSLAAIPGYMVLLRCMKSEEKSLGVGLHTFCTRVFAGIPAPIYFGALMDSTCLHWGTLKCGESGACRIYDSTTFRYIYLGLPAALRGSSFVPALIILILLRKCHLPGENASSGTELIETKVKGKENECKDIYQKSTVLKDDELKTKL
Method: as §1, §2

[5] = target: T3, human OATP1B3 (Homo sapiens, UniProt Q9NPD5); experiment: Cellular uptake in OATP1B3-overexpressing HEK293 cells; assay type: in vitro ADME; conditions: 0.2 µM, 2.5 min incubation, HEK293 OATP1B3, positive control
T3 construct: Werner Siegmund and Dr. Markus Keiser (University of Greifswald); host or cells: HEK293
T3 sequence (Q9NPD5 1-702): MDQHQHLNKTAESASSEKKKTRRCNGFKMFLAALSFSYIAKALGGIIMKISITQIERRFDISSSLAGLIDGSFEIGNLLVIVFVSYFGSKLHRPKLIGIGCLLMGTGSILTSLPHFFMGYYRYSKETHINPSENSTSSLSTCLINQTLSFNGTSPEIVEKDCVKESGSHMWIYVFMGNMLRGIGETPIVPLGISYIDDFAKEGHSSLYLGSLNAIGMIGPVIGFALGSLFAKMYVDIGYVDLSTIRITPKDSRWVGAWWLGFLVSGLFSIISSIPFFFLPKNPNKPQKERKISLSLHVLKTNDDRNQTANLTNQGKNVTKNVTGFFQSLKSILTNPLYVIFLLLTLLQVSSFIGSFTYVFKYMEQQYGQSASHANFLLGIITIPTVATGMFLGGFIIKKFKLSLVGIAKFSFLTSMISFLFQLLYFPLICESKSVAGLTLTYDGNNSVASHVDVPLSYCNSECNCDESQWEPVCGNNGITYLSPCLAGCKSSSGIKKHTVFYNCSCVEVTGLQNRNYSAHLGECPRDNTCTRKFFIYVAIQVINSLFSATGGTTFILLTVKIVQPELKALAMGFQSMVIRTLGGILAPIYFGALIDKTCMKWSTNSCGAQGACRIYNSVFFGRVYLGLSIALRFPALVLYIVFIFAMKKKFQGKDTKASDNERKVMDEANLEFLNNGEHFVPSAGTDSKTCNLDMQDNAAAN
Method: as §1, §2

COc1cc(N2CCC(N3CCN(C)CC3)CC2)ccc1Nc1ncc(Cl)c(Nc2ccccc2P(C)(C)=O)n1 [brigatinib]
acute toxicity [1]: severe and even lethal acute toxicity; also recorded: sometimes severe and lethal toxicity

COc1cc2c(cc1OC)CN(CCc1ccc(NC(=O)c3cccc4c(=O)c5cccc(OC)c5[nH]c34)cc1)CC2 [elacridar]
Tmax [2]: about 4 h

CC(C)c1nc(N(C)S(C)(=O)=O)nc(-c2ccc(F)cc2)c1/C=C/[C@@H](O)C[C@@H](O)CC(=O)O [Rosuvastatin]
uptake compared to vector control cells [3]: efficiently taken up
uptake compared to vector control cells [4]: efficiently taken up
uptake compared to vector control cells [5]: efficiently taken up

— publication PMC8617681 (Pharmaceuticals, 2021)
